According to patent publication US10328063B2, “Method of wound healing” (CONNEXIOS LIFE SCIENCES PVT. LTD, priority 2015, dated 2019):

Experiments:
[1] = system: markers of inflammation at the wound area; experiment: Ex vivo gene expression profile from excision wound model; assay type: in vivo; details: HFD C57BL/6 mice, after one week of compound treatment, skin near wound
Text: [13] […] The db/db control group wounds were not healed within this time. Furthermore, the size of wound of these control groups at the end of the experiment period (day 12) was achieved by the CNX-010-640 treated mice after only 8 days of treatment. […] [16] […] [17] Additionally, the degree of polymorphonuclear cell infiltration (indicative of inflammatory phase) was greater in the G2 group compared to the G3 group (compare FIGS. 6 and 7). From these microscopic observations it can be concluded that the treatment with 0.5% CNX-010-640 hastened the healing process, as it facilitated an early advancement into the proliferative phase in animals treated with CNX-010-640 (G3 group) of this study. Thus CNX-010-640 cream, when applied topically b.i.d, in excision and incision wound healing model on HFD background animals and normal SAM mice, enhanced the healing process in comparison with normal healing and VersaPro control. […] Gene expression was measured using SYBR Green PCR Master Mix (Eurogenetic, Belgium) and relative levels of expression were quantified (see FIGS. 12 to 17). From this, it is apparent that compound treatment has reduced the markers of inflammation at the wound area, as measured by gene expression. […]

[2] = system: Human Dermal Fibroblast cells (HDF); experiment: In vitro scratch assay; assay type: cell-based; details: 400 nM cortisone with 1 μM test molecule, 24 h
Procedure: Human Dermal Fibroblast cells (HDF) cells were seeded in 24 well plates (25000 cells/mL) in 1 mL of growth media (Media-106, Gibco) and allowed to grow for 24 h at 37° C. and 5% CO2. A small linear scratch was created in the confluent monolayer by gently scraping with sterile p200 pipette tips (care was taken during scratching process to ensure universal size and distant was made for all samples). Cells were extensively rinsed with PBS to remove cellular debris before adding the media with different treatment solutions (400 nM cortisone with or without 1 μM of test molecule according to Formula (I)). After 24 h, images of migrated cells were taken using a digital camera connected to inverted microscope to observe the closure of wound area. Scratch assays were performed in quadruplicate.

[3] = system: incision wound in diet induced obese C57 mice; experiment: Incision wound model in HFD fed C57 mice (tensile strength, collagen content); assay type: in vivo; details: diabetic C57 mice
Text: (§1) After an acclimatization period, C57 animals on the HFD were weighed and randomly allocated into different groups such as HFD cream base control and HFD+0.5% CNX-010-640 cream. C57 animals on a lean chow diet (Cream base) were also used as a control. Swiss albino mice on a lean chow diet (excision experiments only) were randomized into cream base control and 0.5% CNX-010-640 cream.
(§2) [6] Mice were anaesthetized using ketamine and xylazine, hair was trimmed off and a longitudinal incision of 4 to 5 cm length was made on the back and stitched with thread. CNX-010-640 cream was applied topically, twice a day. The degree of protection for wound remodeling was assessed by measuring tensile strength and collagen content of skin at the healed wound site. Wound tensile strength was measured after 14 days of treatment.

[4] = system: incision wound in db/db mice; experiment: Incision wound model in db/db mice (tensile strength); assay type: in vivo; details: diabetic db/db mice
Procedure: (§3) db/db Mice (from JAX lab) on chow diet were weighed and randomly allocated into different groups such as db/db cream base control and db/db+0.5% CNX-010-640 cream.
as §2

[5] = system: excision wound in diet induced obese C57 mice; experiment: Excision wound model in HFD fed C57 mice (wound contraction, histopathology); assay type: in vivo; details: for Wound contraction profile in C57 mice: HFD, 0.5% cream topical twice a day, Mean ± SEM
Text: as §1
(§4) Mice were anaesthetized using ketamine and xylazine, hair was trimmed off and a circular excision of 20 mm^2 size was made on the dorsal neck region. CNX-010-640 cream was applied topically, twice a day. The degree of protection for wound remodeling was assessed by measuring wound contraction and period of epithelialisation. Wound contraction was measured on alternate days by tracing the raw wound area on graph paper carried by butter paper. Scar residue and time for completion of epithelialisation was measured. Results are shown in FIGS. 2 and 3, and Tables 1 to 3. On the termination day animals were euthanized and tissue samples containing wound was collected to study histopathological changes (as shown in FIGS. 6 to 11) and gene expression profiles were determined (FIGS. 12 to 17).
[7] All the values are expressed as Mean±SEM, one way analysis of variance was performed followed by Dunnets' test for establishing the significance value of the treatment groups when compared with the HFD control.

[6] = system: excision wound in db/db mice; experiment: Excision wound model in db/db mice (wound contraction); assay type: in vivo; details: for Wound contraction profile in db/db mice: 0.5% cream topical twice a day, Mean ± SEM
Procedure: as §3, §4

[7] = system: excision wound in Swiss albino mice; experiment: Excision wound model in Swiss albino mice (wound contraction); assay type: in vivo; details: for Wound contraction profile in SAM: 0.5% cream topical twice a day, Mean ± SEM
Text: as §1, §4

[8] = HFD C57 mice, 0.5% cream, excision wound
[9] = diabetes-induced C57 mice, excision

CC(CC(=O)N1C2CC3CC1CC(O)(C3)C2)c1c[nH]c2ccc(Cl)c(Cl)c12 (stereo not drawn) [CNX-010-640, 3-(4,5-Dichloro-1H-indol-3-yl)-1-(5-hydroxy-2-azatricyclo[3.3.1.1^3,7]dec-2-yl)butan-1-one]
markers of inflammation at the wound area, as measured by gene expression [1]: reduced
closure of wound area (wound healing properties, image analysis) [2]: good wound healing properties
improvement of tensile strength of skin at the incision site compared with control formulation ([3]; after 14 days of treatment): up to 38%
collagen content, as estimated by measurement of hydroxyproline, compared with controls ([3]; incision): greater
improvement of tensile strength of skin at the incision site compared with control formulation [4]: up to 18%
Wound contraction profile in C57 mice ([5]; Day 0): 25.10 ± 1.40 mm^2
Wound contraction profile in C57 mice ([5]; Day 2): 15.80 ± 1.77 mm^2
Wound contraction profile in C57 mice ([5]; Day 4): 17.90 ± 1.92 mm^2
Wound contraction profile in C57 mice ([5]; Day 6): 9.40 ± 1.42 mm^2
Wound contraction profile in C57 mice ([5]; Day 8): 5.60 ± 1.47 mm^2
Wound contraction profile in C57 mice ([5]; Day 10): 4.00 ± 1.41 mm^2
Wound contraction profile in C57 mice ([5]; Day 12): 0.25 ± 0.25 mm^2
degree of collagen deposition (histopathology) in comparison with HFD+VersaPro control [5, 8]: higher degree
degree of fibroblast proliferation (histopathology) in comparison with HFD+VersaPro control [5, 8]: higher degree
days of treatment to reach the wound size of the control group at day 12 [5, 9]: 6 days
time to complete healing of the wound [5, 9]: 12 days
degree of polymorphonuclear cell infiltration (histopathology) ([5]; diabetes-induced mouse, VersaPro cream with 0.5% compound, excision wound): mild
Wound contraction profile in db/db mice ([6]; Day 0): 17.10 ± 0.69 mm^2
Wound contraction profile in db/db mice ([6]; Day 2): 23.80 ± 0.87 mm^2
Wound contraction profile in db/db mice ([6]; Day 4): 14.40 ± 0.91 mm^2
Wound contraction profile in db/db mice ([6]; Day 6): 11.40 ± 0.48 mm^2
Wound contraction profile in db/db mice ([6]; Day 8): 8.20 ± 0.42 mm^2
Wound contraction profile in db/db mice ([6]; Day 10): 5.00 ± 0.47 mm^2
Wound contraction profile in db/db mice ([6]; Day 12): 2.20 ± 0.42 mm^2
Wound contraction profile in db/db mice ([6]; Day 16): 0.30 ± 0.21 mm^2
days of treatment to reach the wound size of the control group at day 12 ([6]; db/db mice, excision): 8 days
time to complete healing of the wound ([6]; diabetic db/db mice, excision): 16 days
Wound contraction profile in SAM ([7]; Day 0): 22.77 ± 1.38 mm^2
Wound contraction profile in SAM ([7]; Day 2): 15.00 ± 2.18 mm^2
Wound contraction profile in SAM ([7]; Day 4): 14.33 ± 2.62 mm^2
Wound contraction profile in SAM ([7]; Day 6): 10.44 ± 2.80 mm^2
Wound contraction profile in SAM ([7]; Day 8): 3.20 ± 1.46 mm^2
Wound contraction profile in SAM ([7]; Day 10): 1.00 ± 0.54 mm^2
Wound contraction profile in SAM ([7]; Day 12): 0.600 ± 0.600 mm^2
days of treatment to reach the wound size of the control group at day 12 ([7]; Swiss albino mice, excision): 6 days
time to complete healing of the wound ([7]; non-diabetic Swiss albino mice, excision): 12 days
